# Data reported in patent US20150093333A1, “COMPOSITIONS, METHODS AND USES FOR PEPTIDES IN DIAGNOSIS, PROGRESSION AND TREATMENT OF CANCERS” (THE REGENTS OF THE UNIVERSITY OF COLORADO, body corporate, priority 2003, published 2015).
# Legend:
# isolated microvesicles = assay: Fluorescence enhancement with isolated rat microvesicles; type: binding
# Procedure: In another exemplary method, having established the simultaneous curvature- and PS-sensing by MARCKS-ED in synthetic liposomes, MARCKS-ED was tested on detection of highly curved, PS-enriched particles in a complex biological system. Microvesicles (ø=0.03-1 μm) are highly curved lipid vesicles that shed into body fluids (e.g., blood, urine, ascitic fluid). These vesicles are released by cancerous cells in which lipid asymmetry is de-regulated, contributing to externalization and enrichment of PS on their outer leaflet. The microvesicle detecting ability of MARCKS-ED was investigated using plasma samples from a stressed rat model. […]
# Microvesicles in these samples were characterized by TEM imaging, and ELISA of detection of the signature CD63 protein and the membrane transport protein Rab5b exposed on the surface. Particles expressing both proteins were captured by antibodies and quantified in a colorimetric endpoint assay.
# These isolated microvesicles were measured by nanoparticle tracking analysis (NTA) to confirm their average size (ø=56 nm). Tracking analyses were performed using the NanoSight LM10-HS instrument (Amesbury, UK) equipped with a 532 nm laser and observed at scatter and fluorescence modes (filter=550 nm). […]
# Monitored at λex=295 nm, Annexin-V (0.32 μM) was treated with CaCl2 (3 mM) in TES buffer and with 500 μM lipid vesicles of varying PS content. […]
# microvesicles in plasma = assay: Nanoparticle tracking analysis of microvesicles in plasma from stressed rats treated with MARCKS peptides; type: binding, rat; details: Alexa Fluor 546 labeled peptides 55 nM
# Procedure: These isolated microvesicles were measured by nanoparticle tracking analysis (NTA) to confirm their average size (ø=56 nm). Tracking analyses were performed using the NanoSight LM10-HS instrument (Amesbury, UK) equipped with a 532 nm laser and observed at scatter and fluorescence modes (filter=550 nm). The instrument was calibrated using commercially available 50 nm polystyrene beads. […] Alexa Fluor 546™-labeled mouse anti-rat CD63 and unconjugated Alexa Fluor 546™ were used as positive and negative controls, respectively. The profiles of MARCKS-ED-Alexa Fluor 546™ and Alexa Fluor 546™ in the absence of microvesicles were also investigated to confirm that these show negligible scatter and fluorescence background signals under identical NTA conditions.
# FIG. 5A represents fluorescence enhancement assay with MARCKS-ED incubated with the isolated microvesicles. Peptide MARCKS-ED ([…]) not treated with microvesicles was used as a negative control. Annexin-V (a positive control) and MARCKS-ED were incubated with the isolated rat microvesicles. Fluorescence was normalized to the negative control. […] The diameter size and particle count of the isolated microvesicles detected by MARCKS-ED was further quantified. Nanoparticle tracking analysis (NTA) uses a laser for scatter and fluorescence modes to track small particles by Brownian motion, providing a robust method for detecting nano-sized microvesicles. Under the fluorescence mode with the emission filter set for the Alexa Fluor 546™, the particles that bound to MARCKS-ED, MARCKSmut1, and MARCKSmut2peptides were observed.
# FIG. 5B illustrates the results of NTA of microvesicles treated with MARCKS derived peptides. […] The untreated plasma samples were detected using the scatter mode and treated samples were monitored by tracking the fluorescence of Alexa Fluor 546™ conjugated to the MARCKS-ED MARCKSmut1 and MARCKSmut2 peptides. […] Furthermore, blank samples were performed to rule out possible artifacts of background fluorescence from the peptides, the vesicles and the unconjugated dye.
# [1] = biological target: lipid vesicles 60% POPC:15% cholesterol:15% POPE:10% POPS; assay: Fluorescence anisotropy titration of NBD-labeled MARCKS peptides with lipid vesicles; type: binding
# Procedure: In another example, because fluorescence enhancement assays could not distinguish the contributions between different degrees of membrane penetration and binding affinity, fluorescence anisotropy assay was performed to specifically measure the binding affinity of the MARCKS derived peptides. The NBD-labeled peptides (1 μM) were titrated by synthetic liposomes of various sizes (30, 100, and 400 nm). Fluorescence anisotropy was recorded using a Fluorolog-3 fluorometer. The mixture was allowed to equilibrate for 2 minutes prior to the next titration. The excitation wavelength was set to λex=480 nm whereas the emission filter was set to λem=545 nm. The voltage was set to 250 V throughout the experiment. Blank PBS (pH=7.40) was titrated to NBD-labeled peptides as a negative control, where negligible anisotropy change was observed. The following equation was used to determine the dissociation constants as previously reported: Fb=Kp [L]/(1+KP[L]), where Fb expresses the fraction of peptide bound to lipids, Kp expresses the molar partition coefficient and [L] expresses the lipid concentration.
# Lipid vesicles were titrated to NBD-labeled MARCKS-ED, MARCKSmut1, or MARCKSmut2 peptides. Since the peptide partitions between the hydrophobic lipid bilayer and the aqueous solvent, the molar partition coefficient is often reported. By definition, the apparent dissociation constant (Kd), described as the lipid concentration where 50% of the peptide is bound, is the reciprocal of the molar partition coefficient (Kp). Fluorescence anisotropy assay results indicated efficient curvature sensing by MARCKS-ED. FIG. 4C represents an exemplary fluorescence anisotropy titration of MARCKS-ED with various lipid vesicles. FIG. 4D provides data of fluoresence anisotropy titration of various MARCKS derived peptides. Lipid vesicles used in the experiments represented by FIGS. 4C-4D contained 60% POPC:15% cholesterol: 15% POPE: 10% POPS. […] As a comparison, C2AB illustrated a 1.9 fold increase in binding to smaller vesicles (105 nm) relative to the larger ones (252 nm). […] In addition, electrostatic interactions of MARCKSmut2 were also compromised. […] Such defects would permit the Phe residue to insert and stabilize the highly curved membranes.
sequence,measurement,setting,value
KKKKKRFSFKKSFKLSGFSFKKNKK [MARCKS-ED],binding to isolated microvesicles (fluorescence enhancement),isolated microvesicles,demonstrated to bind to these biological particles
same,binding to microvesicles in whole plasma (NTA fluorescence mode),microvesicles in plasma,selectively bind to small-sized microvesicles in whole plasma
same,Kd,[1]; 30 nm pore size lipid vesicles containing 10% PS,24 ± 3 µM
same,Kd,[1]; 100 nm pore size lipid vesicles containing 10% PS,42 ± 13 µM
same,Kd,[1]; 400 nm pore size lipid vesicles containing 10% PS,86 ± 20 µM
